Source: patent US20230398130A1, “METHODS AND COMPOSITIONS FOR DIFFERENTIATING STEM CELLS” (Massachusetts Institute of Technology, priority 2020, published 2023)

How the values were obtained:
ISC-enriched organoids [1] = experiment: Primary screen, 384-well 2.5-D organoid differentiation (ENR+CD, 6 days): basal lysozyme secretion (LYZ.NS); type: cell-based, murine; settings: primary screen; for Dose.FC.LYZ.NS (log 2 fold change): vs plate median
Text: (§1) High-throughput screening.

ISC-enriched organoids [2] = experiment: Primary screen, 384-well 2.5-D organoid differentiation (ENR+CD, 6 days): carbachol-induced lysozyme secretion (LYZ.S); type: cell-based, murine; settings: primary screen, vs plate median
Text: as §1

ISC-enriched organoids [3] = experiment: Primary screen, 384-well 2.5-D organoid differentiation (ENR+CD, 6 days, Target Selective Inhibitor Library, vs whole-plate median): ATP (CellTiter-Glo 3D, CTG); settings: primary screen; for Dose.FC.CTG (log 2 fold change): vs plate median

SMILES	Z.LYZ.NS (standard z score) (ISC-enriched organoids [1]; Dose 0.08 uM)	Dose.FC.LYZ.NS (log 2 fold change) (ISC-enriched organoids [1]; Dose 0.08 uM)	Z.LYZ.NS (standard z score) (ISC-enriched organoids [1]; Dose 0.40 uM)	Dose.FC.LYZ.NS (log 2 fold change) (ISC-enriched organoids [1]; Dose 0.40 uM)	Z.LYZ.NS (standard z score) (ISC-enriched organoids [1]; Dose 2.00 uM)	Dose.FC.LYZ.NS (log 2 fold change) (ISC-enriched organoids [1]; Dose 2.00 uM)	Z.LYZ.NS (standard z score) (ISC-enriched organoids [1]; Dose 10.00 uM)	Dose.FC.LYZ.NS (log 2 fold change) (ISC-enriched organoids [1]; Dose 10.00 uM)	Dose.FC.LYZ.S (log 2 fold change) (ISC-enriched organoids [2]; Dose 0.08 uM)	Dose.FC.LYZ.S (log 2 fold change) (ISC-enriched organoids [2]; Dose 0.40 uM)	Dose.FC.LYZ.S (log 2 fold change) (ISC-enriched organoids [2]; Dose 2.00 uM)	Dose.FC.LYZ.S (log 2 fold change) (ISC-enriched organoids [2]; Dose 10.00 uM)	Z.CTG (standard z score) (ISC-enriched organoids [3]; Dose 0.08 uM)	Dose.FC.CTG (log 2 fold change) (ISC-enriched organoids [3]; Dose 0.08 uM)	Z.CTG (standard z score) (ISC-enriched organoids [3]; Dose 0.40 uM)	Dose.FC.CTG (log 2 fold change) (ISC-enriched organoids [3]; Dose 0.40 uM)	Z.CTG (standard z score) (ISC-enriched organoids [3]; Dose 2.00 uM)	Dose.FC.CTG (log 2 fold change) (ISC-enriched organoids [3]; Dose 2.00 uM)	Z.CTG (standard z score) (ISC-enriched organoids [3]; Dose 10.00 uM)	Dose.FC.CTG (log 2 fold change) (ISC-enriched organoids [3]; Dose 10.00 uM)
Nc1ccc(C(=O)[O-])c(O)c1.[Na+] [Sodium 4-Aminosalicylate]	0.695	0.080	0.354	0.041	1.354	0.156	0.796	0.091	0.162	0.050	0.099	0.143	0.283	0.119	0.488	0.204	0.092	0.038	0.590	0.247
O=[N+]([O-])c1ccc2c(c1)S(=O)(=O)C=C2 [Stattic]	1.131	0.130	0.189	0.022	1.276	0.147	−0.186	−0.021	0.150	0.033	0.082	−0.019	−0.191	−0.080	−0.011	−0.005	0.078	0.033	−0.060	−0.025
Cc1cn([C@H]2C=C[C@@H](CO)O2)c(=O)[nH]c1=O [Stavudine (d4T)]	0.620	0.071	0.027	0.003	0.074	0.009	−0.828	−0.095	0.134	0.001	−0.003	−0.120	0.226	0.095	0.351	0.147	0.179	0.075	−0.179	−0.075
Cc1ccc(-n2nccn2)c(C(=O)N2CCN(c3nc4cc(Cl)ccc4o3)CC[C@H]2C)c1 [Suvorexant (MK-4305)]	1.775	0.204	1.073	0.123	1.073	0.123	0.670	0.077	0.186	0.142	0.101	0.131	0.458	0.192	0.609	0.255	0.895	0.375	0.597	0.250
O=C(Nc1ccncc1)c1cc([N+](=O)[O-])ccc1Cl [T0070907]	0.084	0.010	−0.029	−0.003	0.373	0.043	−1.897	−0.218	−0.005	−0.001	0.081	−0.312	0.267	0.112	0.062	0.026	0.119	0.050	−1.806	−0.756
CNC(=O)c1ccccc1Nc1nc(Nc2ccc(N3CCOCC3)cc2OC)ncc1Cl [TAE226 (NVP-TAE226)]	−2.226	−0.256	−2.650	−0.304	−2.813	−0.323	−2.545	−0.292	−0.333	−0.376	−0.400	−0.426	−1.127	−0.472	−2.689	−1.126	−3.068	−1.284	−2.363	−0.989
CNC(=O)c1ccc2cc([C@@]3(O)CCn4cncc43)ccc2c1 [TAK-700 (Orteronel)]	1.535	0.176	1.585	0.182	1.058	0.121	−0.018	−0.002	0.113	0.090	0.093	0.032	−0.659	−0.276	−0.056	−0.024	−0.202	−0.084	0.219	0.092
O=C1CC(=O)c2c(Cl)c(Cl)c(Cl)c(Cl)c21 [TCID]	0.431	0.049	−0.155	−0.018	0.578	0.066	−0.159	−0.018	0.062	0.017	−0.066	−0.054	−0.325	−0.136	−0.017	−0.007	−0.517	−0.217	−0.545	−0.228
